The results in this text go back to patent US10081615B2, “Sulfamate derivative compounds for use in treating or alleviating pain” (Bio-Pharm Solutions Co., Ltd., priority 2013, dated 2018).

Assay [1] concerns Post operation-induced pain model. Put plainly: Antiallodynic activity on post operative pain-induced pain model (von Frey). The format is in vivo, Sprague-Dawley rats. To be noted: 0.5 h; for ED50: ip. The procedure: Male Sprague-Dawley rats (Orient Bio, Korea), 300-320 g, total of 201 rats were used (details in Table 7). Rats were habituated at least 3 days before surgery and free access to food and water (room temperature and humidity were maintained at […] and 50±10%, respectively). The process of performing the post-operation model's surgery was adapted from Brennan et al (1996). At first, rats with allodynia (threshold valueless than 8 g) were excluded in Pre-von Frey Test. During the post-operation surgery, rats were anesthetized under gaseous anesthesia with 2% isoflurane. Rats were laid face down on a plate fixed at 37° C. to prevent against hypothermia. The ipsilateral plantar aspect (left side) of the hind paw was prepared in a sterile manner with a 10% povidone-iodine solution. A longitudinal incision (1 cm) (FIG. 2-A) was made with a blade (number 11) through the skin and fascia of the ipsilateral plantar aspect of the foot, starting from 0.5 cm below the proximal edge of the heel and extending toward the toes. Rats' plantar muscles were elevated and incised longitudinally (FIG. 2-B). After hemostasis with gentle pressure, the skin was opposed with 2 mattress sutures (4-0 Dafilon) (FIG. 2-C). The wound site was covered with a 10% povidone-iodine solution gauze and injected with antibiotics (gentamicin, 8 mg/kg, ip). The sutures were removed under halothane anesthesia approximately 30 hours later, at the end of post-operative day 1.
After 2-3 days of recovery, rats with a good response (threshold less than 4 g) in Pre-von Frey Test were selected. According to this response, we made three groups with each group having equal average responses: Group 1, post-operation and drug treated; Group 2, post-operation and vehicle treated; Group 3, no post-operation and vehicle treated. In this study, Group 3 was the sham control (positive) group. The group 2 was used to check for possible failures to generate post-operative pain.
For efficacy measure, the threshold value of group C was assigned 100% efficacy, and the percentage of the threshold values of group A compared to group C (for each different dose level) were calculated as the efficacies. Base on these efficacy values, ED50 was calculated using log fitting. If there was no clear ED50, then we marked the percent efficacy at the highest tested dose or larger than highest tested dose.
For pain threshold test, all animals were placed in a stainless steel meshed chamber and habituated for 30 min in the test box. The tactile sensitivity of the ipsilateral hind paw was measured using the up-and-down method (Dixon, 1980) with seven von Frey monofilaments (0.4, 1, 2, 4, 6, 8, and 15 g) using 3 trials. The 50% paw withdrawal threshold for each paw was calculated using the following formula: [Xth] log=[vFr] log+ky, where [vFr] is the force of the last von Frey filament used, k=0.2249 which is the average interval (in log units) between the von Frey monofilaments, y which is a value that depends upon the pattern of withdrawal responses, and Xth which is the threshold value (Dixon, 1980).
Drugs were dissolved 30% PEG400 for example 60, 0.9% saline for Pregabalin, 20% Tween80 for Tylenol, 0.9% saline for Topiramate. These vehicles were selected depending on the compound's solubility. Intraperitoneal injection (5 μl/g) was done for all drugs.
The relative values compared to the sham (% control) were calculated and shown in Table 8, which show an antiallodynic effect of the compound of examples on Post operation-induced pain model in rats.

Assay [2] concerns Vincristine-induced pain model. Put plainly: Antiallodynic activity in the vincristine-induced pain model (von Frey). Conditions: rat, intraperitoneal, 0.5 h; for ED50: ip. It is filed as in vivo, Sprague-Dawley rats. Here is the method:
Male, Sprague-Dawley rats (300-320 g, Nara Bio, Korea) were habituated for 1 week before surgery and allowed free access to food and water throughout the experimentation. Room temperature and humidity were maintained at 24±2° C. and 50±10%, respectively.
The vincristine-induced pain model was established by the procedure of Natsuko et al. (2001) with minor modifications. Vincristine was intravenously infused continuously for 14 days using a mini-osmotic pump as follows: Vincristine sulfate solution (Hospira, Australia) was diluted with 0.9% saline to a final dose of 30 ug/kg. The pumps (Alzet Model 2002, USA) were filled with the vincristine solution and primed by incubation at 37° C. for 4 h before the infusion. Briefly, animals were put under gaseous anesthesia with isoflurane and NO with a 4:4 flow ratio. A catheter made from PE-60 tubing was inserted into an external jugular vein in the rat. Sham controls were prepared in the same manner, with the external jugular vein exposed, but not cut down. Preparation of the vehicle controls were identical to the group treated with compound, except for administration of vehicles without compound in the vehicle control group.
Tactile sensitivity (mechanical allodynia) was evaluated using von Frey monofilaments before and after treatment, and the animals were included in the study only if the withdrawal threshold value was less than 4 g. One week after surgery, vincristine-infused animals (n=6), sham-operated animals (n=12) and vehicle-operated (n=18) animals were tested for tactile sensitivity with von Frey monofilaments with 3 trials in each animal. All animals were placed in a stainless steel mesh chamber and habituated for 30 min in the test cage. The tactile sensitivity for the ipsilateral hind paw was measured using the up-and-down method (Dixon, 1980) with seven von Frey monofilaments (0.4, 1, 2, 4, 6, 8, and 15 g) in 3 trials. The tactile sensitivity test was followed by Dixon's method. The 50% paw withdrawal threshold for each paw was calculated using the following formula: [Xth] log=[vFr] log+ky where [vFr] is the force of the last von Frey used, k=0.2249 which is the average interval (in log units) between the von Frey monofilaments, and y is a value that depends upon the pattern of withdrawal responses (Dixon, 1980).
[…] The test was performed at the peak time of efficacy (0.5 hr) after compound administration.
The relative values compared to the sham (% control) were calculated and are shown in Table 11, which show an antiallodynic effect of the compound of examples in the vincristine-induced pain model in rats.

Where [3] appears, read: Rattus norvegicus, read-out: Post Operation: ED50 mg/kg.

SMILES strings stand for the structures. Where two headings read alike, the source gives them in different places.

As for `CC1(C)Oc2ccccc2[C@@H](COS(N)(=O)=O)O1` [Example 2, ((S)-2,2-dimethyl-4H-benzo[d][1,3]dioxin-4-yl)methyl sulfamate], in assay [1] (rat, intraperitoneal, read-out: Post Operation: ED50), the ED50 is 14.9 mg/kg. On to `CC1(C)Oc2ccccc2[C@H](COS([NH-])(=O)=O)O1.[Na+]` [Example 58, Sodium (R)-(((2,2-dimethyl-4H-benzo[d][1,3]dioxin-4-yl)methoxy)sulfonyl)amide Trihydrate], for which the values for the ED50 in assay [2] and in assay [1] (setting [3]) were 6.2 mg/kg and 19.4 mg/kg, respectively.

As for `CC1(C)Oc2ccccc2C(COS([NH-])(=O)=O)O1.[Na+]` (stereo not drawn) [Example 60, Sodium (((2,2-dimethyl-4H-benzo[d][1,3]dioxin-4-yl)methoxy)sulfonyl)amide Trihydrate], the ED50 in assay [2] was 2.4 mg/kg; in assay [1] (setting [3]), 18.9 mg/kg.

Take `[NH-]S(=O)(=O)OC[C@H]1OC2(CCCC2)Oc2ccccc21.[Na+]` [Example 65, Sodium (S)-(((4H-spiro[benzo[d][1,3]dioxine-2,1′-cyclopentan]-4-yl)methoxy)sulfonyl)amide]: the ED50 was 8.2 mg/kg in assay [2] and 31.8 mg/kg in assay [1] (setting [3]).

`CC1(C)Oc2ccccc2[C@H](COS([NH-])(=O)=O)O1.[K+]` [Example 70, Potassium (R)-(((2,2-dimethyl-4H-benzo[d][1,3]dioxin-4-yl)methoxy)sulfonyl)amide]: in assay [2] (2.4 mg/kg administered), the “Vincristine model: effect (%) compared to control” value was “(36.2%, 0.5 h)”. Moreover, the “Post Operation: effect (%) compared to control” value in assay [1] (rat, intraperitoneal, 18.9 mg/kg administered) is listed as “(22.0%, 0.5 h)”.
